Reference: patent publication US20250034122A1, “SUBSTITUTED N-CYANOPYRROLIDINES WITH ACTIVITY AS USP30 INHIBITORS” (MISSION THERAPEUTICS LIMITED, priority 2021, published 2025)
One block for each compound: values may come before it.

How the values were obtained:
[1] = target: USP30 (Homo sapiens (Human), UniProt Q70CQ3); assay: USP30 biochemical IC50 assay (fluorescence polarisation); conditions: geomean; USP30 4 nM, 30 min pre-incubation, TAMRA-peptide-ubiquitin FP substrate
Description: Dilution plates were prepared at 21 times the final concentration (2100 μM for a final concentration of 100 μM) in 50% DMSO in a 96-well polypropylene V-bottom plate (Greiner #651201). A typical 8-point dilution series would be 100, 30, 10, 3, 1, 0.3, 0.1, 0.03 μM final. Reactions were performed in duplicate in black 384 well plates (small volume, Greiner 784076) in a final reaction volume of 21 μl.
Either lpl of 50% DMSO or diluted compound was added to the plate. USP30 (Boston Biochem #E582) was diluted in reaction buffer (40 mM Tris, pH 7.5, 0.005% Tween 20, 0.5 mg/ml BSA, 5 mM beta-mercaptoethanol) to achieve a final assay concentration of 4 nM, and 10 μl of diluted USP30 was added to the compound. Enzyme and compound were incubated for 30 min at room temp. Reactions were initiated by the addition of 50 nM of TAMRA labelled peptide linked to ubiquitin via an isopeptide bond as fluorescence polarisation substrate. Reactions were read immediately after addition of substrate and following a 2-hour incubation at room temperature. Readings were performed on a Pherastar Plus (BMG Labtech). λ Excitation 540 nm; λ Emission 590 nm.

[2] = tested on: TOM20 ubiquitylation; assay: TOM20-ubiquitylation assay (western blot of cell lysates); format: cell-based, Human; conditions: antimycin A/oligomycin mitophagy trigger, concentration for 1.5-fold gain of TOM20-Ub
Description: TOM20-Ubiquitylation Assay Human cell lines can be challenged with mitochondrial depolarizing agents (ionophores (eg. CCCP, valinomycin), mitochondrial complex inhibitors (oligomycin, antimycin A)) to induce ubiquitylation of TOM20, which is then further promoted in the presence of USP30 inhibitors. TOM20 ubiquitylation is subsequently assessed through western blotting of the cell lysates, with TOM20 ubiquitylation adduct detection possible due to an 8 kDa molecule weight increase for each molecule of ubiquitin added, resulting in laddering of a TOM20 immunoreactive band. TOM20-ubiquitylation levels can be quantified using chemiluminescence densitometry of laddered immunoreactive bands.

USP30, sequence (Q70CQ3 57-517): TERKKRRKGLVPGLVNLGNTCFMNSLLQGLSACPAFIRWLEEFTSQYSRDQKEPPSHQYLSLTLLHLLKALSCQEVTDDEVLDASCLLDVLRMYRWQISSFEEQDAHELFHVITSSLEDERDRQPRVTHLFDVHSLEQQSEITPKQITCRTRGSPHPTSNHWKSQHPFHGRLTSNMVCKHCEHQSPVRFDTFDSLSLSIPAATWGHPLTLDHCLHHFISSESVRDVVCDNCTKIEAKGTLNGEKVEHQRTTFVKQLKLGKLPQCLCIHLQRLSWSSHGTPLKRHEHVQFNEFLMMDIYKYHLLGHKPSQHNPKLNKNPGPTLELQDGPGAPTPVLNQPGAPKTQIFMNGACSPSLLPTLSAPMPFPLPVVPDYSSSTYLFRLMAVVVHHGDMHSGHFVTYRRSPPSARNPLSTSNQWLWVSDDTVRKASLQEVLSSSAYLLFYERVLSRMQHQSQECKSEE

Structure (SMILES): N#Cc1ccc(C2CC2)c(-c2nnc(C(=O)N(C3CC3)[C@@H]3C[C@@H](Cn4ccnn4)N(C#N)C3)o2)c1 [Example 2, N-((3R,5S)-5-((1H-1,2,3-Triazol-1-yl)methyl)-1-cyanopyrrolidin-3-yl)-5-(5-cyano-2-cyclopropylphenyl)-N-cyclopropyl-1,3,4-oxadiazole-2-carboxamide]
IC50 [1]: 11 nM
EC1.5x (Geomean, nM); TOM20-Ub 1.5-fold gain [2]: 15 nM

Structure (SMILES): N#CN1C[C@H](NC(=O)c2ncc(-c3ccccc3C3CC3)o2)C[C@H]1Cn1ccnn1 [Example 8, N-((3R,5S)-5-((1H-1,2,3-Triazol-1-yl)methyl)-1-cyanopyrrolidin-3-yl)-5-(2-cyclopropylphenyl)oxazole-2-carboxamide]
IC50 [1]: 14 nM
EC1.5x (Geomean, nM); TOM20-Ub 1.5-fold gain [2]: 41 nM

Structure (SMILES): N#CN1C[C@H](NC(=O)c2nnc(-c3cc(OC(F)(F)F)ccc3C3CC3)o2)C[C@H]1Cn1ccnn1 [Example 13, N-((3R,5S)-5-((1H-1,2,3-Triazol-1-yl)methyl)-1-cyanopyrrolidin-3-yl)-5-(2-cyclopropyl-5-(trifluoromethoxy)phenyl)-1,3,4-oxadiazole-2-carboxamide]
IC50 [1]: 5 nM
EC1.5x (Geomean, nM); TOM20-Ub 1.5-fold gain [2]: 6 nM

Structure (SMILES): COc1ccccc1-c1cnc(C(=O)N[C@@H]2C[C@@H](Cn3ccnn3)N(C#N)C2)o1 [Example 6, N-((3R,5S)-5-((1H-1,2,3-Triazol-1-yl)methyl)-1-cyanopyrrolidin-3-yl)-5-(2-methoxyphenyl)oxazole-2-carboxamide]
IC50 [1]: 23 nM
EC1.5x (Geomean, nM); TOM20-Ub 1.5-fold gain [2]: 180 nM

Structure (SMILES): N#Cc1cccc(-c2cnc(C(=O)N[C@@H]3C[C@@H](Cn4ccnn4)N(C#N)C3)o2)c1 [Example 3, N-((3R,5S)-5-((1H-1,2,3-Triazol-1-yl)methyl)-1-cyanopyrrolidin-3-yl)-5-(3-cyanophenyl)oxazole-2-carboxamide]
IC50 [1]: 2 nM
EC1.5x (Geomean, nM); TOM20-Ub 1.5-fold gain [2]: 8 nM

Structure (SMILES): N#CN1C[C@H](NC(=O)c2ncc(-c3cccc(C4CC4)c3)o2)C[C@H]1Cn1ccnn1 [Example 12, N-((3R,5S)-5-((1H-1,2,3-Triazol-1-yl)methyl)-1-cyanopyrrolidin-3-yl)-5-(3-cyclopropylphenyl)oxazole2-carboxamide]
IC50 [1]: 8 nM
EC1.5x (Geomean, nM); TOM20-Ub 1.5-fold gain [2]: 25 nM

Structure (SMILES): N#Cc1ccc(C2CC2)c(-c2cnc(C(=O)N(C3CC3)[C@@H]3C[C@@H](Cn4ccnn4)N(C#N)C3)o2)c1 [Example 1, N-((3R,5S)-5-((1H-1,2,3-Triazol-1-yl)methyl)-1-cyanopyrrolidin-3-yl)-5-(5-cyano-2-cyclopropylphenyl)-N-cyclopropyloxazole-2-carboxamide]
IC50 [1]: 5 nM
EC1.5x (Geomean, nM); TOM20-Ub 1.5-fold gain [2]: 17 nM

The next lines start with results.

IC50 [1]: 9 nM
Structure (SMILES): N#CN1C[C@H](NC(=O)c2cc(-c3cccc(C(F)(F)F)c3)ccn2)C[C@H]1Cn1ccnn1 [Example 24, N-((3R,5S)-5-((1H-1,2,3-Triazol-1-yl)methyl)-1-cyanopyrrolidin-3-yl)-4-(3-(trifluoromethyl)phenyl)picolinamide]
EC1.5x (Geomean, nM); TOM20-Ub 1.5-fold gain [2]: 620 nM

IC50 [1]: 4 nM
Structure (SMILES): N#Cc1cccc(-c2cnc(C(=O)N[C@@H]3C[C@@H](Cn4nccn4)N(C#N)C3)o2)c1 [Example 17, N-((3R,5S)-5-((2H-1,2,3-Triazol-2-yl)methyl)-1-cyanopyrrolidin-3-yl)-5-(3-cyanophenyl)oxazole-2-carboxamide]
EC1.5x (Geomean, nM); TOM20-Ub 1.5-fold gain [2]: 16 nM

IC50 [1]: 28 nM
Structure (SMILES): N#Cc1ccc(OC2COC2)c(-c2cnc(C(=O)N(C3CC3)[C@@H]3C[C@@H](Cn4ccnn4)N(C#N)C3)o2)c1 [Example 16, N-((3R,5S)-5-((1H-1,2,3-Triazol-1-yl)methyl)-1-cyanopyrrolidin-3-yl)-5-(5-cyano-2-(oxetan-3-yloxy)phenyl)-N-cyclopropyloxazole-2-carboxamide]
EC1.5x (Geomean, nM); TOM20-Ub 1.5-fold gain [2]: 950 nM

IC50 [1]: 9 nM
Structure (SMILES): N#Cc1ccc(C2CC2)c(-c2nnc(C(=O)N[C@@H]3C[C@@H](Cn4cccn4)N(C#N)C3)o2)c1 [Example 46, N-((3R,5S)-5-((1H-Pyrazol-1-yl)methyl)-1-cyanopyrrolidin-3-yl)-5-(5-cyano-2-cyclopropylphenyl)-1,3,4-oxadiazole-2-carboxamide]
EC1.5x (Geomean, nM); TOM20-Ub 1.5-fold gain [2]: 19 nM

IC50 [1]: 2 nM
Structure (SMILES): N#Cc1cccc(-c2cnc(C(=O)N[C@@H]3C[C@@H](Cn4cncn4)N(C#N)C3)o2)c1 [Example 18, N-((3R,5S)-5-((1H-1,2,4-Triazol-1-yl)methyl)-1-cyanopyrrolidin-3-yl)-5-(3-cyanophenyl)oxazole-2-carboxamide]
EC1.5x (Geomean, nM); TOM20-Ub 1.5-fold gain [2]: 16 nM

IC50 [1]: 5 nM
Structure (SMILES): N#Cc1cccc(-c2cnc(C(=O)N[C@@H]3C[C@@H](Cn4cccn4)N(C#N)C3)o2)c1 [Example 26, N-((3R,5S)-5-((1H-Pyrazol-1-yl)methyl)-1-cyanopyrrolidin-3-yl)-5-(3-cyanophenyl)oxazole-2-carboxamide]
EC1.5x (Geomean, nM); TOM20-Ub 1.5-fold gain [2]: 14 nM

IC50 [1]: 11 nM
Structure (SMILES): N#CN1C[C@H](NC(=O)c2ncc(-c3cccc(C(F)(F)F)c3)o2)C[C@H]1Cn1cccn1 [Example 30, N-((3R,5S)-5-((1H-Pyrazol-1-yl)methyl)-1-cyanopyrrolidin-3-yl)(3(trifluoromethyl)phenyl)oxazole-2-carboxamide]
EC1.5x (Geomean, nM); TOM20-Ub 1.5-fold gain [2]: 14 nM
